How the values were obtained:
Wee1 = Wee1 (Homo sapiens, UniProt P30291); assay: Wee1 pCDK1 activity (known assay); assay type: cell-based
Procedure: (§1) The Wee1 pCDK1 and PLK1 activities were determined using known assays.

PLK1 = PLK1 (Homo sapiens, UniProt P53350); assay: PLK1 activity (known assay); assay type: biochemical
Procedure: as §1

PLK1, sequence (P53350 whole entry, species assumed): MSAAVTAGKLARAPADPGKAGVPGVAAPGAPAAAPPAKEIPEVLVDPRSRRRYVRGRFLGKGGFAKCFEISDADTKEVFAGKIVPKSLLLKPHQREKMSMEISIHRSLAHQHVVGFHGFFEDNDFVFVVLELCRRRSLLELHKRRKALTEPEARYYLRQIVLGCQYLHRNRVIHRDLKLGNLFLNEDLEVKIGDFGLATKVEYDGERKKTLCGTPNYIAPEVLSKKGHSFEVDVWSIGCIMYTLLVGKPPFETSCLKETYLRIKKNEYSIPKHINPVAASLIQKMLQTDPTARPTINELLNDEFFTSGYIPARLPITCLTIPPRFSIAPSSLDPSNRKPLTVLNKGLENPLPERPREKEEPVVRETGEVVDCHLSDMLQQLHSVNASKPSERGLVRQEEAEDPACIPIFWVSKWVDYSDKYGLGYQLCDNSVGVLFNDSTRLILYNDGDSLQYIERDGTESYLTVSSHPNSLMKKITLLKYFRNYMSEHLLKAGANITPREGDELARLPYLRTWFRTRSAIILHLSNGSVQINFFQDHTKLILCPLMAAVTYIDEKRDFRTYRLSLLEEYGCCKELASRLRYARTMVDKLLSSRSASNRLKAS
Wee1, sequence (P30291 whole entry, species assumed): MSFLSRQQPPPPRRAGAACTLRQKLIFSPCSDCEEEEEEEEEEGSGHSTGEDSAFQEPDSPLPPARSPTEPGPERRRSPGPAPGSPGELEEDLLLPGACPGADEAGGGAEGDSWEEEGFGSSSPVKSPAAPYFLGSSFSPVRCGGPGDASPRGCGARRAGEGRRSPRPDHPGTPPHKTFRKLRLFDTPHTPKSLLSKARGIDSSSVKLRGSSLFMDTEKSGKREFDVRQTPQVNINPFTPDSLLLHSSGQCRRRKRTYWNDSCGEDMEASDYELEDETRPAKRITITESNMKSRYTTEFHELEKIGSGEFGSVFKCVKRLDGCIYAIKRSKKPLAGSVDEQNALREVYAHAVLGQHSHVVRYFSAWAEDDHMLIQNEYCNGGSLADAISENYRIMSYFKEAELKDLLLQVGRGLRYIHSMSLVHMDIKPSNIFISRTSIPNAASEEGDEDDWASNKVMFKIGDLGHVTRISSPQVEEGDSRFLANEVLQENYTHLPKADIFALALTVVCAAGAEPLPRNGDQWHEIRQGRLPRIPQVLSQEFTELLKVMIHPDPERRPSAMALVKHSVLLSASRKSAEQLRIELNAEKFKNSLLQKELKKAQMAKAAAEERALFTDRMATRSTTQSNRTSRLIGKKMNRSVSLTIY

Compound	IC50 (Wee1)	IC50 (PLK1)
CCC1(O)CCc2ccc(Nc3nc(Nc4ccc5c(c4)CNCC54CC4)ncc3C#N)nc21 (stereo not drawn) [Example 55, 4-[(7-ethyl-7-hydroxy-5,6-dihydrocyclopenta[b]pyridin-2-yl)amino]-2-(spiro[2,3-dihydro-1H-isoquinoline-4,1′-cyclopropane]-7-ylamino)pyrimidine-5-carbonitrile]	> 1000 nM	≤ 100 nM
CCC1(O)CCc2ccc(Nc3nc(Nc4ccc5c(c4)CCNC5(C)C)ncc3C#N)nc21 (stereo not drawn) [Example 25, 2-[(1,1-dimethyl-3,4-dihydro-2H-isoquinolin-6-yl)amino]-4-[(7-ethyl-7-hydroxy-5,6-dihydrocyclopenta[b]pyridin-2-yl)amino]pyrimidine-5-carbonitrile]	500 to 1000 nM	> 1000 nM
CCC1(O)CCc2ccc(Nc3nc(Nc4ccc(N5CCN(C)C6(CC6)C5)cc4)ncc3C#N)nc21 (stereo not drawn) [Example 33, 4-[(7-ethyl-7-hydroxy-5,6-dihydrocyclopenta[b]pyridin-2-yl)amino]-2-[4-(4-methyl-4,7-diazaspiro[2.5]octan-7-yl)anilino]pyrimidine-5-carbonitrile]	> 1000 nM	≤ 100 nM
CCC1(O)CCc2ccc(Nc3nc(Nc4ccc5c(c4)CN(C)CC54CC4)ncc3C#N)nc21 (stereo not drawn) [Example 56, 4-[(7-ethyl-7-hydroxy-5,6-dihydrocyclopenta[b]pyridin-2-yl)amino]-2-[(2-methylspiro[1,3-dihydroisoquinoline-4,1′-cyclopropane]-7-yl)amino]pyrimidine-5-carbonitrile]	100 to 250 nM	100 to 250 nM
CN1CCC(c2ccc(Nc3ncc(C#N)c(Nc4cccc(N5CCCC5=O)n4)n3)cc2)CC1=O (stereo not drawn) [Example 67, 2-[4-(1-methyl-2-oxo-4-piperidyl)anilino]-4-[[6-(2-oxopyrrolidin-1-yl)-2-pyridyl]amino]pyrimidine-5-carbonitrile]	500 to 1000 nM	> 1000 nM
CCC1(O)CCc2ccc(Nc3nc(Nc4cc(C)c(C5CCN(C)CC5)c(F)c4)ncc3C#N)nc21 (stereo not drawn) [Example 41, 4-[(7-ethyl-7-hydroxy-5,6-dihydrocyclopenta[b]pyridin-2-yl)amino]-2-[3-fluoro-5-methyl-4-(1-methyl-4-piperidyl)anilino]pyrimidine-5-carbonitrile]	100 to 250 nM	250 to 500 nM
CN1CC2CC1CN2c1ccc(Nc2ncc(C#N)c(Nc3cccc(N4CCCC4=O)n3)n2)cc1 (stereo not drawn) [Example 70, 2-[4-(5-methyl-2,5-diazabicyclo[2.2.1]heptan-2-yl)anilino]-4-[[6-(2-oxopyrrolidin-1-yl)-2-pyridyl]amino]pyrimidine-5-carbonitrile]	250 to 500 nM	≤ 100 nM
C[C@@H]1CN(C)CCN1c1ccc(Nc2ncc(C#N)c(Nc3cccc(N4CCCC4=O)n3)n2)cc1 [Example 64, 4-[[6-(2-oxopyrrolidin-1-yl)-2-pyridyl]amino]-2-[4-[(2R)-2,4-dimethylpiperazin-1-yl]anilino]pyrimidine-5-carbonitrile]	250 to 500 nM	> 1000 nM
CN1CCc2cc(Nc3ncc(C#N)c(Nc4cccc(N5CCCC5=O)n4)n3)cc(Cl)c2C1 [Example 76, 2-[(8-chloro-2-methyl-3,4-dihydro-1H-isoquinolin-6-yl)amino]-4-[[6-(2-oxopyrrolidin-1-yl)-2-pyridyl]amino]pyrimidine-5-carbonitrile]	500 to 1000 nM	> 1000 nM
CN1CCc2ccc(Nc3ncc(C#N)c(Nc4cccc(N5CCCC5=O)n4)n3)cc2C1 [Example 74, 2-[(2-methyl-3,4-dihydro-1H-isoquinolin-7-yl)amino]-4-[[6-(2-oxopyrrolidin-1-yl)-2-pyridyl]amino]pyrimidine-5-carbonitrile]	100 to 250 nM	> 1000 nM
CN1CC2CCC(C1)N2c1ccc(Nc2ncc(C#N)c(Nc3ccc4c(n3)C(C)(O)CC4)n2)cc1 (stereo not drawn) [Example 57, 4-[(7-hydroxy-7-methyl-5,6-dihydrocyclopenta[b]pyridin-2-yl)amino]-2-[4-(3-methyl-3,8-diazabicyclo[3.2.1]octan-8-yl)anilino]pyrimidine-5-carbonitrile]	250 to 500 nM	> 1000 nM

Results, then the molecule that gave them:

IC50 (Wee1)	IC50 (PLK1)	Compound
100 to 250 nM	250 to 500 nM	CN1CCN(c2ccc(Nc3ncc(C#N)c(Nc4cccc(N5CCCC5=O)n4)n3)cc2)CC1 [Example 5, 2-[4-(4-methylpiperazin-1-yl)anilino]-4-[[6-(2-oxopyrrolidin-1-yl)-2-pyridyl]amino]pyrimidine-5-carbonitrile]
≤ 100 nM	250 to 500 nM	CCC1(O)CCc2ccc(Nc3nc(Nc4cc(C)c5c(c4)CCN(C)C5)ncc3C#N)nc21 (stereo not drawn) [Example 47, 2-[(2,8-dimethyl-3,4-dihydro-1H-isoquinolin-6-yl)amino]-4-[(7-ethyl-7-hydroxy-5,6-dihydrocyclopenta[b]pyridin-2-yl)amino]pyrimidine-5-carbonitrile]
100 to 250 nM	> 1000 nM	C[C@H]1CN(C)CCN1c1ccc(Nc2ncc(C#N)c(Nc3cccc(N4CCOC4=O)n3)n2)cc1 [Example 9, 4-[[6-(2-oxooxazolidin-3-yl)-2-pyridyl]amino]-2-[4-[(2S)-2,4-dimethylpiperazin-1-yl]anilino]pyrimidine-5-carbonitrile]
100 to 250 nM	≤ 100 nM	CN1CCN(c2ccc(Nc3ncc(C#N)c(Nc4ccc5c(n4)C(C)(O)CC5)n3)cc2)CC1 (stereo not drawn) [Example 8, 4-[(7-hydroxy-7-methyl-5,6-dihydrocyclopenta[b]pyridin-2-yl)amino]-2-[4-(4-methylpiperazin-1-yl)anilino]pyrimidine-5-carbonitrile]
≤ 100 nM	≤ 100 nM	CCC1(O)CCc2ccc(Nc3nc(Nc4ccc(N5CCNCC5)c(C)c4)ncc3C#N)nc21 (stereo not drawn) [Example 17, 4-[(7-ethyl-7-hydroxy-5,6-dihydrocyclopenta[b]pyridin-2-yl)amino]-2-(3-methyl-4-piperazin-1-yl-anilino)pyrimidine-5-carbonitrile]
≤ 100 nM	≤ 100 nM	CCCC1(O)CCc2ccc(Nc3nc(Nc4ccc(N5CCN(C)CC5)cc4)ncc3C#N)nc21 (stereo not drawn) [Example 2, 4-[(7-hydroxy-7-propyl-5,6-dihydrocyclopenta[b]pyridin-2-yl)amino]-2-[4-(4-methylpiperazin-1-yl)anilino]pyrimidine-5-carbonitrile]
≤ 100 nM	≤ 100 nM	CCC1(O)CCc2ccc(Nc3nc(Nc4ccc(C5CCN(C)CC5)c(C)c4)ncc3C#N)nc21 (single isomer, unassigned) [Example 21]
≤ 100 nM	> 1000 nM	CCC1(O)CCc2ccc(Nc3nc(Nc4ccc5c(c4)CCN(C)C5(C)C)ncc3C#N)nc21 (single isomer, unassigned) [Example 27]
≤ 100 nM	> 1000 nM	CCC1(O)CCc2ccc(Nc3nc(Nc4ccc5c(c4)CCN(C)C5(C)C)ncc3C#N)nc21 (stereo not drawn) [Example 26, 4-[(7-ethyl-7-hydroxy-5,6-dihydrocyclopenta[b]pyridin-2-yl)amino]-2-[(1,1,2-trimethyl-3,4-dihydroisoquinolin-6-yl)amino]pyrimidine-5-carbonitrile]
≤ 100 nM	> 1000 nM	CN1CCc2cc(Nc3ncc(C#N)c(Nc4cccc(N5CCOC5=O)n4)n3)ccc2C1 [Example 12, 2-[(2-methyl-3,4-dihydro-1H-isoquinolin-6-yl)amino]-4-[[6-(2-oxooxazolidin-3-yl)-2-pyridyl]amino]pyrimidine-5-carbonitrile]
